Assay results taken from patent publication US6495587B1, “Tricyclic indole-2-carboxylic acid compound used as NMDA receptor antagonist” (Sumitomo Pharmaceuticals Company, Limited, priority 1999, dated 2002).
Counter-ions that a name gives are not always drawn. Like-named read-outs stand apart in the source and are kept apart here.

Tests used:
[1] = Characteristic moisture absorption (Vapor Sorption Analyzer); type: physicochemical; settings: 25° C.; for Water taken up by the dehydrated sample: 0% R.H. to 95% R.H. and back to 10% R.H.
Protocol: Characteristic moisture absorption of the crystalline hydrochloride monohydrate [C-5] and the hydrochloride [C-4] which is in the form of an amorphous powder were measured with a Vapor Sorption Analyzer MB300G-3 (VTI Corporation).
In advance of measurement, the weighed samples put in the Analyzer were dehydrated at 60° C. under reduced pressure.

[2] = test system: tonic convulsions after i.c.v. administration of NMDA; experiment: Anti-convulsion test (NMDA i.c.v.); type: in vivo, mice; settings: 20 min before NMDA 5 nmol i.c.v.
Protocol: Twenty minutes after intravenous administration of the test compound (1 to 10 mg/kg) into each of ten mice tested, NMDA (5 nmol) was administered intracerebroventricularly (i.c.v.). […] The hydrochloride [C-4] at 10 mg/kg i.v. protected 90% of mice from tonic convulsions.

[3] = molecular target: T1, glycine binding site of the NMDA receptor (rat brain synaptic membrane) (Rattus norvegicus, UniProt P35439); experiment: [3H]-DCKA binding test; settings: 10 nM [3H]-DCKA, 2° C., 10 min, pH 7.4; read-out: IC50, inhibition of [3H]-DCKA binding
T1 construct: A crude rat brain synaptic membrane preparation; from tissue; host or cells: rat brain synaptic membranes (Triton X-100 treated)
Protocol: A crude rat brain synaptic membrane preparation was washed three time with 50 mM Tris acetate buffer (pH 7.4) and centrifuged at 50,000×g for 30 min. The pellets obtained were suspended in 0.32M sucrose solution and stored at −80° C. For binding studies, the frozen suspension was thawed, treated with 0.08-0.10% triton X-100 at 2° C. for 10 min. The membrane suspension was washed twice and centrifuged at 50,000×g for 30 min. The synaptic membrane thus prepared (ca. 100 μg of protein) was incubated with 10 nM [^3H]-5,7-dichlorokynurenic acid (DCKA) and the test compound (10 to 0.1 ng/mL) at 2° C. for 10 min in 50 mM Tris acetate buffer (pH 7.4). The incubation was terminated by suction filtration using Whatman GF/B glass filter. The radioactivity bound to the membrane on the filter was measured by scintillation counting. Non-specific binding was calculated by the radioactivity measured under the incubations in the presence cf 0.1 mM glycine.

[4] = type: physicochemical; settings: for HPLC integrated intensity (%) under 75% R.H. / HPLC integrated intensity (%) in a sealed tube: 60° C.
Protocol: The hydrochloride monohydrate [C-5] was kept at a temperature of 60° C., in a sealed tube or under 75% R.H.(relative humidity) for 4 weeks. Thereafter, the remaining amount of the compound was assayed with high performance liquid chromatography (HPLC).

C[C@@H](Oc1cc(CN)ccc1NC(=O)C[C@@H]1CCc2cc(Cl)cc3[nH]c(C(=O)O)c1c23)C(=O)O [C-4, (3S)-7-Chloro-3-(2-((1R)-1-carboxyethoxy)-4-aminomethylphenyl)aminocarbonylmethyl-1,3,4,5-tetrahydrobenz[c.d]indole-2-carboxylic Acid Hydrochloride]
Water taken up by the dehydrated sample [1]: more than 2.5 molecular equivalents of water
Mice protected from tonic convulsions ([2]; 10 mg/kg i.v., ten mice): 90%
ED50 ([2]; Mus musculus, iv, mice, read-out: ED50, protection from tonic convulsions): 2.3 mg/kg
IC50 [3]: 1.4 nM

C[C@@H](Oc1cc(CN)ccc1NC(=O)C[C@@H]1CCc2cc(Cl)cc3[nH]c(C(=O)O)c1c23)C(=O)O.Cl.O [C-5]
Water taken up by the dehydrated sample [1]: one
Water taken up, theoretical weight change for one molecular equivalent ([1]; moist atmosphere): 3.45 wt %
Increase of impurities or degradation products in HPLC charts [4]: did not show any increase of impurities or degradation products
HPLC integrated intensity (%) under 75% R.H. ([4]; 2 weeks): 99.2%
HPLC integrated intensity (%) under 75% R.H. ([4]; 4 weeks): 99.5%
HPLC integrated intensity (%) under 75% R.H. ([4]; Initial): 99.3%
HPLC integrated intensity (%) in a sealed tube ([4]; 2 weeks): 99.3%
HPLC integrated intensity (%) in a sealed tube ([4]; 4 weeks): 99.6%
HPLC integrated intensity (%) in a sealed tube ([4]; Initial): 99.3%

C[C@H](Oc1cc(CN)ccc1NC(=O)C[C@@H]1CCc2cc(Cl)cc3[nH]c(C(=O)O)c1c23)C(=O)O [D-2, (3S)-7-Chloro-3-(2-((1S)-1-carboxyethoxy)-4-aminomethylphenyl)aminocarbonylmethyl-1,3,4,5-tetrahydrobenz[c.d]indole-2-carboxylic Acid Hydrochloride, reference compound]
IC50 [3]: 16 nM
